According to patent US20230406831A1, “COMPOUNDS AND METHODS OF INHIBITING BACTERIAL CHAPERONIN SYSTEMS” (THE TRUSTEES OF INDIANA UNIVERSITY, priority 2020, published 2023):
pEC50, pIC50: −log10 of the molar value.

What was measured:
[1] = HEK 293 kidney cell viability / cytotoxicity assay (Alamar Blue); format: cell-based; settings: human, HEK 293 kidney cells; Table 3; 48 h incubation, Alamar Blue; read-out: HEK 293 Kidney Cell Viability CC50
Experimental: Evaluating compound effects on kidney cell viability.
HEK 293 cells were maintained in MEM medium (Corning Cellgro, 10-009 CV) supplemented with 10% FBS (Sigma, F2242). […] Cells at 80% confluence were harvested and diluted in growth medium, then 45 μL of the HEK 293 cells (1,500 cells/well) were dispensed per well, and plates were sealed with “Breathe Easy” oxygen permeable membranes (Diversified Biotech) and incubated at 37° C., 5% CO2, for 24 h. […] Plates were sealed with “Breathe Easy” oxygen permeable membranes and incubated for an additional 48 h at 37° C. and 5% CO2. The Alamar Blue reporter reagents were then added to a final concentration of 10%, the plates incubated at 37° C. and 5% CO2, and sample fluorescence (535 nm excitation, 590 nm emission) was read using a Molecular Devices FlexStation II 384-well plate reader (readings taken between 4-24 h of incubation so as to achieve signals in the 30-60% range for conversion of resazurin to resorufin). Cell viability was calculated as per vendor instructions (Thermo Fisher—Alamar Blue cell viability assay manual).

GroEL/ES = target: T1, GroEL/ES (Escherichia coli, UniProt P0A6F5); experiment: GroEL/ES-mediated dMDH refolding assay; format: biochemical, E. coli; settings: Table 3; 37° C., 1 mM ATP; read-out: Biochemical Assay IC50 GroEL/ES-dMDH Refolding
T1 construct: made in house; host or cells: GroEL in E. coli DH5a; GroES in E. coli BL21 (DE3)
T1 sequence (P0A6F5 2-548): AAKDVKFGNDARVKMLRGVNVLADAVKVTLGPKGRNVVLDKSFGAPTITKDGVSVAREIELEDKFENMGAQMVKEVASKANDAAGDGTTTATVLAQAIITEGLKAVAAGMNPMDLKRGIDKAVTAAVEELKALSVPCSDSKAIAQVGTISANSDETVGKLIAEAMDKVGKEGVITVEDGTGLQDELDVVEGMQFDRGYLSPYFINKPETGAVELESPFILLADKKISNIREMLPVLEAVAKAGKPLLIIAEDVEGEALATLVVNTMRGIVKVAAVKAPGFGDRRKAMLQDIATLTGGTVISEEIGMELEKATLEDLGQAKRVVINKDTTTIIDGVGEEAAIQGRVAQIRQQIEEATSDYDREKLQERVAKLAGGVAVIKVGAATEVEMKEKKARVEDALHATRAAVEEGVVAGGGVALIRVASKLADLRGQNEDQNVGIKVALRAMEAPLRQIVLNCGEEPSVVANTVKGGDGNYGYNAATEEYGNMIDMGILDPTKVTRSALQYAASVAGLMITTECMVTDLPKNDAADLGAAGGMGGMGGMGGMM
Experimental: (§1) Evaluation of compounds ability to inhibit GroEL/ES and HSP60/10-mediated dMDH refolding assays.
(§2) Reagent preparation: For these assays, four primary reagent stocks were prepared: 1) GroEL/ES-dMDH or HSP60/10-dMDH binary complex stock; 2) ATP initiation stock; 3) EDTA quench stock; 4) MDH enzymatic assay stock. Denatured MDH (dMDH) was prepared by 2-fold dilution of MDH (5 mg/ml, soluble pig heart MDH from Roche, product #10127248001) with denaturant buffer (7 M guanidine-HCl, 200 mM Tris, pH 7.4, and 50 mM DTT). MDH was completely denatured by incubating at room temperature for 45 min. The binary complex solutions were prepared by slowly adding the dMDH stock to a stirring stock with GroEL (or HSP60) in folding buffer (50 mM Tris-HCl, pH 7.4, 50 mM KCl, 10 mM MglC2, and 1 mM DTT), followed by addition of GroES (or HSP10). The binary complex stocks were prepared immediately prior to dispensing into the assay plates and had final protein concentrations of 83.3 nM GroEL (Mr 800 kDa) or HSP60 (Mr 400 kDa), 100 nM GroES or HSP10 (Mr 70 kDa), and 20 nM dMDH in folding buffer. For the ATP initiation stock, ATP solid was diluted into folding buffer to a final concentration of 2.5 mM. Quench solution contained 600 mM EDTA (pH 8.0). The MDH enzymatic assay stock consisted of 20 mM sodium mesoxalate and 2.4 mM NADH in reaction buffer (50 mM Tris-HCl, pH 7.4, 50 mM KC1, and 1 mM DTT).
(§3) Assay Protocol: First, 30 μL aliquots of the GroEL/ES-dMDH or HSP60/10-dMDH binary complex stocks were dispensed into clear, 384-well polystyrene plates. Next, 0.5 μL of the compound stocks (10 mM to 4.6 μM, 3-fold dilutions series in DMSO) were added by pin-transfer (V&P Scientific). The chaperonin-mediated refolding cycles were initiated by addition of 20 IA of ATP stock (reagent concentrations during refolding cycle: 50 nM GroEL or HSP60, 60 nM GroES or HSP10, 12 nM dMDH, 1 mM ATP, and compounds of 100 μM to 46 nM, 3-fold dilution series). The refolding reactions were incubated at 37° C. The incubation time was determined from refolding time-course control experiments until they reached ˜90% completion of refolding cycle — generally ˜20-40 min for GroEL/ES, and ˜40-60 min for HSP60/10). Next, the assay was quenched by addition of 10 μL of the EDTA to final concentration of 100 mM. […] A340 nm measurements were recorded at 0.5 minutes (start point) and at successive time points until the amount of NADH consumed reached ˜90% (end point, generally between 20-35 minutes). The differences between the start and end point A340 values were used to calculate the % inhibition of the GroEL/ES or HSP60/10 machinery by the compounds. IC50 values for the test compounds were obtained by plotting the % inhibition results in GraphPad Prism 6 and analyzing by non-linear regression using the log (inhibitor) vs. response (variable slope) equation. Results presented represent the averages of IC50 values obtained from at least quadriplicate (duplicate of duplicate) replicates. For results, see Tables 1, 2, and 3.

HSP60/10 = target: T2, HSP60/10 (Homo sapiens, UniProt P10809); experiment: HSP60/10-mediated dMDH refolding assay; format: biochemical; settings: Table 3; 37° C., 1 mM ATP; read-out: Biochemical Assay IC50 HSP60/10-dMDH Refolding
T2 construct: octa-Histidine (His8) tag, TEV-cleavable (N, cleaved yes); made in house; host or cells: HSP60 in Rosetta 2 (DE3) E. coli; HSP10 in Rosetta 2 (DE3) pLysS
T2 sequence (P10809 27-573): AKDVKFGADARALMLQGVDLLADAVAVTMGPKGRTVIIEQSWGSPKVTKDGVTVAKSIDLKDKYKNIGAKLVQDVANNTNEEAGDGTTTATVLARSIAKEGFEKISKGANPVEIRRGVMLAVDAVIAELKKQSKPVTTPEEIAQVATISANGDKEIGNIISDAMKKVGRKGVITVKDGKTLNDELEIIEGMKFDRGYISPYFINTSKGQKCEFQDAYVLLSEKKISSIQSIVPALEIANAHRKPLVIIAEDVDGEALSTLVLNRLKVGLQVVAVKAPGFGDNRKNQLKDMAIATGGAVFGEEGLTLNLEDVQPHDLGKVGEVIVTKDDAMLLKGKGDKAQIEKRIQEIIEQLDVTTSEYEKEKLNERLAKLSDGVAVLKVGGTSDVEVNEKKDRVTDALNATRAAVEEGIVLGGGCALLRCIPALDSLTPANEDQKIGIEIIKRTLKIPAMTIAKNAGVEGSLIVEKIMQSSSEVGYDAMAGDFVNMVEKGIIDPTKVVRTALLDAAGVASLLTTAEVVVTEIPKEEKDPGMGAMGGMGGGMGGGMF
Experimental: as §1, §2, §3

S. aureus = S. aureus bacterial proliferation assay; format: cell-based; settings: Staphylococcus aureus; Table 3; cation adjusted BHI media, OD600 at 6-8 h; read-out: S. aureus Proliferation EC50
Experimental: Evaluation of compounds for inhibition of bacterial cell proliferation.
Growth Media: S. aureus bacteria were grown in Brain Heart Infusion (BHI) broth/agar (Becton, Dickinson and Company). All liquid cultures were grown in BHI media supplemented with 25 mg/L Ca^2+ and 12.5 mg/L Mg^2+ to mimic free physiological concentrations of these cations. A 10 mg/mL Ca^2+ stock solution was prepared by dissolving 3.68 g of CaCl2·2H^2O in 100 mL of deionized water, and a 10 mg/mL Mg^2+ stock solution was prepared by dissolving 8.36 g of […] in 100 mL deionized water. Both stock solutions were filter-sterilized using 0.2 μm pore size cellulose-acetate filters. 2.5 mL of the sterile 10 mg/mL Ca^2+ stock and 1.25 mL of the sterile 10 mg/mL Mg^2+ stock solutions were added per 1 L of autoclaved BHI medium to obtain 25 mg/L Ca^2+ and 12.5 mg/L Mg^2+ ions, respectively.
General Assay Protocol: Stock bacterial cultures were streaked onto BHI agar plates and grown overnight at 37° C. Fresh aliquots of broth were inoculated with single bacterial colonies and the cultures were grown overnight at 37° C. with shaking (240 rpm) in cation adjusted BHI media. The following morning, the overnight cultures were sub-cultured (1:5 dilution) into fresh aliquots of cation adjusted BHI media and grown at 37° C. for 1-2 hours with shaking. After 2 h, cultures were diluted into fresh media to achieve final OD600 readings of 0.017. Aliquots of these diluted cultures (30 μL) were added to clear, flat-bottom, 384-well polystyrene plates that were stamped with 0.5 μL of test compounds in 20 μL media. Compounds were evaluated in dose-response format where the inhibitor concentration range during the proliferation assay was 100 μM to 46 nM (3-fold dilution series). Plates were sealed with “Breathe Easy” oxygen permeable membranes (Diversified Biotech) and left to incubate at 37° C. without shaking (stagnant assay). OD600 nm readings were taken generally at 6-8 h, when bacteria had reached log-phase growth. A second set of baseline control plates were prepared analogously, but without any bacteria added, to correct for possible compound absorbance and/or precipitation. Plates were then read at 600 nm using a Molecular Devices SpectraMax Plus384 microplate reader. EC50 values for the test compounds were obtained by plotting the OD600 results in GraphPad Prism and analyzing by non-linear regression using the log(inhibitor) vs. response (variable slope) equation. For results, see Tables 1, 2, and 3.

## O=C(O)c1ccc(NC(=O)c2cc(Cl)ccc2O)cc1 [Compound 109, 4-(5-chloro-2-hydroxybenzamido)benzoic acid]
[1]
  CC50 at 48 h: > 100 µM
GroEL/ES
  pIC50: < 4.00
HSP60/10
  pIC50: < 4.00
S. aureus
  pEC50: < 4.00
